Laboratory results as given in patent US20200347043A1, “MODULATORS OF THE INTEGRATED STRESS PATHWAY” (Calico Life Sciences LLC, priority 2019, published 2020).

test system: HEK293T cells carrying the ATF4 luciferase reporter; assay: ATF4-Luc assay (in vitro model of VWMD); assay type: cell-based, human; conditions: Homo sapiens, HEK-293T, 1 μg/mL tunicamycin, 7 hours, One Glo luminescence
Procedure: In order to test exemplary compounds of the invention in a cellular context, a stable VWMD cell line was first constructed. The ATF4 reporter was prepared by fusing the human full-length ATF4 5′-UTR (NCBI Accession No. BC022088.2) in front of the firefly luciferase (FLuc) coding sequence lacking the initiator methionine as described in Sidrauski et al (eLife 2013). The construct was used to produce recombinant retroviruses using standard methods and the resulting viral supernatant was used to transduce HEK293T cells, which were then subsequently selected with puromycin to generate a stable cell line.
HEK293T cells carrying the ATF4 luciferase reporter were plated on polylysine coated 384-well plates (Greiner Bio-one) at 30,000 cells per well. Cells were treated the next day with 1 μg/mL tunicamycin and 200 nM of a compound of Formula (I) for 7 hours. Luminescence was measured using One Glo (Promega) as specified by the manufacturer. Cells were maintained in DMEM with L-glutamine supplemented with 10% heat-inactivated FBS (Gibco) and Antibiotic-Antimycotic solution (Gibco).
Table 4 below summarizes the EC50 data obtained using the ATF4-Luc assay for exemplary compounds of the invention.

SMILES | EC50 [nM]
O=C(N[C@@H]1C[C@@H]2O[C@H]1C[C@H]2c1nnc([C@H]2C[C@@H](OC(F)(F)F)C2)o1)[C@H]1C[C@@H](O)c2cc(Cl)ccc2O1 (mixture of isomers) [Compound 187] | 50 to 250
O=C(N[C@H]1C[C@@H](OC(F)(F)F)C1)[C@H]1C[C@H]2O[C@@H]1C[C@@H]2NC(=O)[C@H]1C[C@@H](O)c2cc(Cl)ccc2O1 (mixture of isomers) [Compound 219, (2R,4R)-6-chloro-4-hydroxy-N-[(1RS,2SR,4RS,5SR)-5-{[cis-3-(trifluoromethoxy)cyclobutyl]carbamoyl}-7-oxabicyclo[2.2.1]heptan-2-yl]-3,4-dihydro-2H-1-benzopyran-2-carboxamide] | 500 to 2000
O=C1C[C@H](C(=O)NC23CC(NC(=O)[C@@H]4C[C@@H]4COC(F)(F)F)(C2)C3)Oc2ccc(Cl)cc21 (mixture of isomers) [Compound 296, (2R)-6-chloro-4-oxo-N-[3-({(1RS,2SR)-2-[(trifluoromethoxy)methyl]cyclopropane-1-carbonyl}amino)bicyclo[1.1.1]pentan-1-yl]-3,4-dihydro-2H-1-benzopyran-2-carboxamide] | 500 to 2000
O=C(NC12CC(NC(=O)[C@@H]3C[C@@H]3COC(F)(F)F)(C1)C2)[C@H]1C[C@@H](O)c2cc(Cl)ccc2O1 (mixture of isomers) [Compound 299, (2R,4R)-6-chloro-4-hydroxy-N-[3-({(1RS,2SR)-2-[(trifluoromethoxy)methyl]cyclopropane-1-carbonyl}amino)bicyclo[1.1.1]pentan-1-yl]-3,4-dihydro-2H-1-benzopyran-2-carboxamide] | 500 to 2000
O=C(NCc1ccc(C(F)(F)F)cn1)[C@H]1C[C@H]2O[C@@H]1C[C@@H]2NC(=O)[C@H]1C[C@@H](O)c2cc(Cl)ccc2O1 (mixture of isomers) [Compound 313, (2R,4R)-6-chloro-4-hydroxy-N-[(1RS,2SR,4RS,5SR)-5-({[5-(trifluoromethyl)pyridin-2-yl]methyl}carbamoyl)-7-oxabicyclo[2.2.1]heptan-2-yl]-3,4-dihydro-2H-1-benzopyran-2-carboxamide] | 250 to 500
O=C(COc1ccc(Cl)c(F)c1)NC12CC(C(=O)NC[C@H]3C[C@@H](O)c4cc(Cl)ccc4O3)(C1)C2 (racemic) [Compound 104, 3-[2-(4-chloro-3-fluorophenoxy)acetamido]-N-{[rac-(2R,4R)-6-chloro-4-hydroxy-3,4-dihydro-2H-1-benzopyran-2-yl]methyl}bicyclo[1.1.1]pentane-1-carboxamide] | 10 to 50
O=C(CO[C@H]1C[C@@H](OC(F)(F)F)C1)NC12CC(NC(=O)[C@H]3C[C@@H](O)c4cc(Cl)ccc4O3)(C1)C2 (racemic) [Compound 114, rac-(2R,4R)-6-chloro-4-hydroxy-N-[3-(2-{[(1s,3s)-3-(trifluoromethoxy)cyclobutyl]oxy}acetamido)bicyclo[1.1.1]pentan-1-yl]-3,4-dihydro-2H-1-benzopyran-2-carboxamide] | < 10
O=C(NCc1ccc(C(F)(F)F)cc1)[C@@H]1CC[C@@H](NC(=O)[C@H]2C[C@@H](O)c3cc(Cl)ccc3O2)CO1 (racemic) [Compound 121, (2R,4R)-6-chloro-4-hydroxy-N-[(3R,6S)-6-({[4-(trifluoromethyl)phenyl]methyl}carbamoyl)oxan-3-yl]-3,4-dihydro-2H-1-benzopyran-2-carboxamide and (2S,4S)-6-chloro-4-hydroxy-N-[(3R,6S)-6-({[4-(trifluoromethyl)phenyl]methyl}carbamoyl)oxan-3-yl]-3,4-dihydro-2H-1-benzopyran-2-carboxamide] | 10 to 50
O=C(N[C@@H]1CC[C@@H](C(=O)N2CC(Oc3ccc(Cl)cc3)C2)OC1)[C@H]1C[C@@H](O)c2cc(Cl)ccc2O1 (racemic) [Compound 122, (2R,4R)-6-chloro-N-(3R,6S)-6-[3-(4-chlorophenoxy)azetidine-1-carbonyl]oxan-3-yl)-4-hydroxy-3,4-dihydro-2H-1-benzopyran-2-carboxamide and (2S,4S)-6-chloro-N-{(3R,6S)-6-[3-(4-chlorophenoxy)azetidine-1-carbonyl]oxan-3-yl}-4-hydroxy-3,4-dihydro-2H-1-benzopyran-2-carboxamide] | 10 to 50
O=C(NC12CC(C(=O)NCc3ccc(C(F)(F)F)cn3)(C1)C2)[C@H]1C[C@@H](O)c2cc(Cl)ccc2O1 (racemic) [Compound 123, rac-(2R,4R)-6-chloro-4-hydroxy-N-[3-(([5-(trifluoromethyl)pyridin-2-yl]methyl)carbamoyl)bicyclo[1.1.1]pentan-1-yl]-3,4-dihydro-2H-1-benzopyran-2-carboxamide] | 50 to 250
O=C(N[C@H]1CC[C@H](C(=O)NCc2nc3ccc(Cl)cc3[nH]2)CC1)[C@H]1C[C@@H](O)c2cc(Cl)ccc2O1 (racemic) [Compound 126, rac-(2R,4R)-6-chloro-N-[(1r,4R)-4-{[(6-chloro-1H-benzimidazol-2-yl)methyl]carbamoyl}cyclohexyl]-4-hydroxy-3,4-dihydro-2H-1-benzopyran-2-carboxamide] | 10 to 50
O=C(NCc1cn2ccc(Cl)cc2n1)[C@@H]1CC[C@@H](NC(=O)[C@@H]2C[C@H](O)c3cc(Cl)ccc3O2)CO1 (racemic) [Compound 131, (2S,4S)-6-chloro-N-[(3R,6S)-6-{[(7-chloroimidazo[1,2-a]pyridin-2-yl)methyl]carbamoyl}oxan-3-yl]-4-hydroxy-3,4-dihydro-2H-1-benzopyran-2-carboxamide and (2R,4R)-6-chloro-N-[(3R,6S)-6-{[(7-chloroimidazo[1,2-a]pyridin-2-yl)methyl]carbamoyl}oxan-3-yl]-4-hydroxy-3,4-dihydro-2H-1-benzopyran-2-carboxamide] | 50 to 250
O=C(N[C@H]1CC[C@H](N2CCN(c3cnc(C(F)F)cn3)C2=O)CC1)[C@H]1C[C@@H](O)c2cc(Cl)ccc2O1 (racemic) [Compound 136, rac-(2R,4R)-6-chloro-N-[(1r,4R)-4-{3-[5-(difluoromethyl)pyrazin-2-yl]-2-oxoimidazolidin-1-yl}cyclohexyl]-4-hydroxy-3,4-dihydro-2H-1-benzopyran-2-carboxamide] | 50 to 250
O=C(COc1ccc(Cl)c(F)c1)NC1CC2(C1)CN(C(=O)[C@@H]1C[C@H](O)c3cc(Cl)ccc3O1)C2 (racemic) [Compound 145, 2-(4-chloro-3-fluorophenoxy)-N-{2-[rac-(2R,4R)-6-chloro-4-hydroxy-3,4-dihydro-2H-1-benzopyran-2-carbonyl]-2-azaspiro[3.3]heptan-6-yl}acetamide] | 50 to 250
O=C(NC12CCC(NC(=O)[C@H]3C[C@@H](OC(F)(F)F)C3)(CC1)[C@@H](O)C2)[C@@H]1C[C@H](O)c2cc(Cl)ccc2O1 (racemic) [Compound 147, (2S,4S)-6-chloro-4-hydroxy-N-[(3S)-3-hydroxy-4-{[(1s,3R)-3-(trifluoromethoxy)cyclobutane-1-carbonyl]amino}bicyclo[2.2.2]octan-1-yl]-3,4-dihydro-2H-1-benzopyran-2-carboxamide and (2R,4R)-6-chloro-4-hydroxy-N-[(3S)-3-hydroxy-4-{[(1s,3R)-3-(trifluoromethoxy)cyclobutane-1-carbonyl]amino}bicyclo[2.2.2]octan-1-yl]-3,4-dihydro-2H-1-benzopyran-2-carboxamide] | 250 to 500
O=C(NC12CC(n3cnc(-c4ccc(F)c(F)c4)c3)(C1)C2)[C@H]1C[C@@H](O)c2cc(Cl)ccc2O1 (racemic) [Compound 149, rac-(2R,4R)-6-chloro-N-{3-[4-(3,4-difluorophenyl)-1H-imidazo-1-yl]bicyclo[1.1.1]pentan-1-yl}-4-hydroxy-3,4-dihydro-2H-1-benzopyran-2-carboxamide] | < 10
O=C(NC12CC(c3nnc([C@H]4C[C@@H](OC(F)(F)F)C4)o3)(C1)C2)[C@H]1C[C@@H](O)c2cc(Cl)ccc2O1 (racemic) [Compound 159, rac-(2R,4R)-6-chloro-4-hydroxy-N-(3-{5-[(1s,3S)-3-(trifluoromethoxy)cyclobutyl]-1,3,4-oxadiazol-2-yl}bicyclo[1.1.1]pentan-1-yl)-3,4-dihydro-2H-1-benzopyran-2-carboxamide] | 10 to 50
O=C(NC12CCC(c3nnc([C@H]4C[C@@H](OC(F)(F)F)C4)o3)(C1)C2)[C@H]1C[C@@H](O)c2cc(Cl)ccc2O1 (racemic) [Compound 160, rac-(2R,4R)-6-chloro-4-hydroxy-N-(4-{5-[(1s,3S)-3-(trifluoromethoxy)cyclobutyl]-1,3,4-oxadiazol-2-yl}bicyclo[2.1.1]hexan-1-yl)-3,4-dihydro-2H-1-benzopyran-2-carboxamide] | 50 to 250
O=C(N[C@@H]1CC[C@@H](c2nnc([C@H]3C[C@@H](OC(F)(F)F)C3)o2)OC1)C1CC(O)c2cc(Cl)ccc2O1 (mixture of isomers) [Compound 161, (2RS,4RS)-6-chloro-4-hydroxy-N-[(3R,6)-6-{5-[cis-3-(trifluoromethoxy)cyclobutyl]-1,3,4-oxadiazol-2-yl}oxan-3-yl]-3,4-dihydro-2H-1-benzopyran-2-carboxamide] | < 10
O=C(COc1ccc(Cl)c(F)c1)NC12CC(c3nnc([C@H]4C[C@@H](O)c5cc(Cl)ccc5O4)o3)(C1)C2 (racemic) [Compound 166, 2-(4-chloro-3-fluorophenoxy)-N-(3-{5-[rac-(2R,4R)-6-chloro-4-hydroxy-3,4-dihydro-2H-1-benzopyran-2-yl]-1,3,4-oxadiazol-2-yl}bicyclo[1.1.1]pentan-1-yl)acetamide] | < 10
